Where no end group is shown, it is not given here.
Experiments:
RINm cells = experiment: Insulin secretion in RINm cells; format: cell-based; settings: peptides 0-5 nM, mimetibodies 5 or 50 nM, ELISA
Method: To test the effect of GLP-1 MMB in insulin secretion, RINm cells were treated with increasing concentrations of GLP-1 (7-36) peptide (0-5 nM), exendin-4 peptide (0-5 nM), or various GLP-1 mimetibodies (5 or 50 nM) and the amount of insulin secreted was measured via ELISA. All GLP-1 MMBs tested had activities in stimulating insulin secretion in RINm cells (FIG. 6).

wild type mice [1] = experiment: Food intake in wild type mice; format: in vivo; settings: single iv GLP-1 MMB 1 mg/kg, exendin-4 0.07 mg/kg
GLP-1R−/− mice [2] = experiment: Food intake in GLP-1R−/− mice; format: in vivo; settings: single iv GLP-1 MMB 1 mg/kg, exendin-4 0.07 mg/kg
wild type mice [3] = experiment: Glucose tolerance test (ipGTT) in wild type mice; format: in vivo; settings: single iv GLP-1 MMB 1 mg/kg, exendin-4 0.07 mg/kg
wild type mice [4] = experiment: Gastric emptying in wild type mice; format: in vivo; settings: iv GLP-1 MMB 1 mg/kg, exendin-4 0.07 mg/kg
Method: (§1) Materials/Methods: Animals: Male GLP-1R−/− and age matched wild type mice were randomized into three treatment groups (n=5) based on body weight and fasting blood glucose. […] The next morning mice were re-fed for 1 h, food intake was recorded and the mice were deprived of food for the rest of the study. Mice were dosed intravenously as discussed above. Two hours post-dosing mice were euthanized. The stomach was exposed by laparotomy, ligated at both the pylorus and cardia and removed. The stomach content wet weight was measured. Equation 1 was used to calculate the percent of food remaining in the stomach.
(§2) (Stomach Content Wet Weight(g)/Food Intake(g))*100 Equation (1)

GLP-1R−/− mice [5] = experiment: Gastric emptying in GLP-1R−/− mice; format: in vivo; settings: iv GLP-1 MMB 1 mg/kg, exendin-4 0.07 mg/kg
Method: as §1, §2

[6] = administered subcutaneously; cited from earlier work
female beagle dogs = experiment: Gastric emptying in normal dogs; format: in vivo; settings: lidamidine 0.63 mg/kg sc 60 minutes before the meal; GLP-1 MMB 0.1 mg/kg iv 15 minutes before the meal
Method: A gastric cannula was surgically implanted into female beagle dogs (10-15 kg) under general anesthesia and allowed to recover for at least 2 weeks. Dogs were fasted for 24 hours after which water was freely available. The gastric cannula was opened and gastric juice and food remnants were removed with 40-50 ml of lukewarm water. Groups of six dogs were dosed subcutaneously with lidamidine, an alpha2 agonist (0.63 mg/kg), 60 minutes before the meal, a positive control for delay of gastric emptying. […] Five minutes before the meal, the gastric cannula was opened to determine the amount of fluid present in stomach for baseline value and fluid was promptly reintroduced. Then a test meal consisting of 250 ml of a glucose solution (5 g/l) was administered via the cannula and allowed to remain in the stomach for 30 minutes. Gastric contents were drained from the stomach to measure total volume after 30 minutes. […] Glucose concentrations were evaluated for collected samples and used to determine the absolute amount of glucose remaining in the stomach at each time point. The percentage of glucose retained in the stomach was determined from the starting value and the concentration of glucose at each time point and plotted as a function of time. The time at which 50% of the gastric contents were retained was determined by fitting of the curves to a single exponential.

db/db mice = experiment: Blood glucose in db/db mice after intravenous dosing; format: in vivo; settings: six week old db/db mice, 0.5-4 hours post-dosing, MMB dose 100-fold lower than peptide dose
Method: Blood glucose was monitored 0.5, 1, 2, 3, and 4 hours post-dosing.

exendin-4 [reference compound]
stimulation of insulin secretion in RINm cells (RINm cells): stimulates insulin release | 24 hour cumulative food intake vs CNTO1996 (wild type mice [1]): statistically significant reduction in food intake | 24 hour cumulative food intake (GLP-1R−/− mice [2]): no effect on food intake | area under the curve (AUC) of the ipGTT (wild type mice [3]): statistically significant reduction in the AUC | stomach content (percent of food remaining) 2 h after dosing vs CNTO1996 (wild type mice [4]): statistically significant increase in stomach content | gastric emptying 2 h after dosing (GLP-1R−/− mice [5]): no effect on gastric emptying

GLP-1 (7-36) amide: GLP-1 (7-36) amide
time action [6]: about 50 minutes

CN=C(N)NC(=O)Nc1c(C)cccc1C [lidamidine]
time in which 50% of the gastric contents were emptied (female beagle dogs): 30.60 ± 6.47 min

CC[C@H](C)[C@H](NC(=O)[C@H](Cc1ccccc1)NC(=O)[C@H](CCC(=O)O)NC(=O)[C@H](CCCCN)NC(=O)[C@H](C)NC(=O)[C@H](C)NC(=O)[C@H](CCC(N)=O)NC(=O)CNC(=O)[C@H](CCC(=O)O)NC(=O)[C@H](CC(C)C)NC(=O)[C@H](Cc1ccc(O)cc1)NC(=O)[C@H](CO)NC(=O)[C@H](CO)NC(=O)[C@@H](NC(=O)[C@H](CC(=O)O)NC(=O)[C@H](CO)NC(=O)[C@@H](NC(=O)[C@H](Cc1ccccc1)NC(=O)[C@@H](NC(=O)CNC(=O)[C@H](CCC(=O)O)NC(=O)[C@H](C)NC(=O)[C@@H](N)Cc1c[nH]cn1)[C@@H](C)O)[C@@H](C)O)C(C)C)C(=O)N[C@@H](C)C(=O)N[C@@H](Cc1c[nH]c2ccccc12)C(=O)N[C@@H](CC(C)C)C(=O)N[C@H](C(=O)N[C@@H](CCCCN)C(=O)NCC(=O)N[C@@H](CCCNC(=N)N)C(N)=O)C(C)C [GLP-1 peptide]
blood glucose (db/db mice): lowered blood glucose at 30 minutes

GLP-1 (7-36) peptide: wide-type GLP-1 (7-36) peptide (HAEGTFTSDVSSYLEGQAAKEFIAWLVKGR; ends and bridges not checked; UniProt P01275 98-127, looked up)
stimulation of insulin secretion in RINm cells (RINm cells): stimulates insulin release
